# Data published in PMC3474771, “Evaluation of 14 Organic Solvents and Carriers for Screening Applications in Zebrafish Embryos and Larvae” (PLoS ONE, 2012).
# Where two headings read alike, the source gives them in different places.
# Columns and labels:
# [1] = system: zebrafish embryos and larvae; settings: for Maximum-tolerated concentration (MTC): highest concentration with no phenotypic abnormalities, followed to 9 dpf
# Experimental: Zebrafish embryos of the AB wild-type strain (originally obtained from the Zebrafish International Resource Center, Eugene, Oregon, USA) were raised at 28°C. Zebrafish husbandry, embryo collection, and embryo and larva maintenance were performed as described, [21]. Toxicity assays were standardly performed in 24-well microtiter plates (wrapped with Parafilm to limit solvent evaporation) using 10 embryos per well in 1 ml of 0.3× Danieau's medium (17 mM NaCl, 2 mM KCl, 0.12 mM MgSO4, 1.8 mM Ca(NO3)2 and 1.5 mM HEPES, pH 7.6). Each experiment was repeated 3 times for a total of 30 embryos or larvae analyzed per solvent per developmental staged tested. Data were only recorded for experiments in which the percentage of normal embryos or larvae in the control group was at least 90%. […] In determining the maximum tolerated concentration (MTC) for each solvent and carrier, all post-exposure embryos and larvae were allowed to develop in larva medium to 9 dpf, so as to detect any deleterious effects appearing after this 24-hour window. Solvents and carriers were obtained from the following suppliers: acetone (Chemlab, Zedelgem, Belgium), acetonitrile (Acros Organics, Geel, Belgium), albumin (BSA, Sigma-Aldrich, Bornem, Belgium), butanone (Riedel-de Haën, Seelze, Germany), cyclodextrin (2- hydroxypropyl-beta-cyclodextrin, Sigma-Aldrich), dimethyl formamide (Acros), DMSO (Agros), ethanol (Fisher Scientific, Doornik, Belgium), glycerol (Acros), isopropanol (Chemlab), methanol (Chemlab), polyethylene glycol-400 (Fluka, Bornem, Belgium), propylene glycol (Certa, Eigenbrakel, Belgium), solketal (Merck, Overijse, Belgium). Statistical analyses were done using chi-square in Microsoft Excel.
# Twelve solvents and 2 carriers – chosen based solely on their potential utility for the solubilization and delivery of a structurally diverse range of small molecules – were analyzed for their effects on zebrafish embryos and larvae. The solvents included acetone, acetonitrile, butanone, dimethyl formamide, DMSO, ethanol, glycerol, isopropanol, methanol, polyethylene glycol (PEG-400), propylene glycol, and solketal, and the carriers included albumin (BSA) and cyclodextrin (2-hydroxypropyl-beta-cyclodextrin, or HPBCD). […] For this initial study, the effects of a 24-hour exposure to each solvent and carrier was analyzed using embryos and larvae at the following developmental stages: 2–4 cell, 4 hours-post fertilization (hpf), and 1, 2, 3, 4, and 7 days post-fertilization (dpf).
# zebrafish = system: zebrafish; design: method as in PMID 18646521; settings: 0.01% acetone; cited from earlier work
# rat embryos = settings: cited from earlier work
# zebrafish embryos = system: zebrafish embryos; design: method as in PMID 16125774; settings: 2% DMSO; cited from earlier work
# [2] = exposure for 24 hours beginning at 1 dpf
# [3] = exposure for 24 hours beginning at 2 dpf
# [4] = exposure for 24 hours beginning at 2–4 cell stage
# [5] = exposure for 24 hours beginning at 3 dpf
# [6] = exposure for 24 hours beginning at 4 dpf
# [7] = exposure for 24 hours beginning at 4 hpf
# [8] = exposure for 24 hours beginning at 5 dpf
# [9] = exposure for 24 hours beginning at 7 dpf
# [10] = exposure from 1 dpf, at the concentration in parentheses
# [11] = exposure from 3 dpf, at the concentration in parentheses
# [12] = exposure from 4 dpf, at the concentration in parentheses
# [13] = exposure from 5 dpf, at the concentration in parentheses
# [14] = exposure from 7 dpf, at the concentration in parentheses
# [15] = 24 hours exposure from 2–4 cell stage
Molecule,Lowest concentration at which an average penetrance of at least 50% was observed for the phenotypic effects ([1]; 24 hours exposure from 7 dpf) [%],"Maximum-tolerated concentration (MTC) [1, 2] [%]","Maximum-tolerated concentration (MTC) [1, 3] [%]","Maximum-tolerated concentration (MTC) [1, 4] [%]","Maximum-tolerated concentration (MTC) [1, 5] [%]","Maximum-tolerated concentration (MTC) [1, 6] [%]","Maximum-tolerated concentration (MTC) [1, 7] [%]","Maximum-tolerated concentration (MTC) [1, 8] [%]","Maximum-tolerated concentration (MTC) [1, 9] [%]",Lowest concentration at which an average penetrance of at least 50% was observed for the phenotypic effects ([1]; 24 hours exposure from 1 dpf) [%],Lowest concentration at which an average penetrance of at least 50% was observed for the phenotypic effects ([1]; 24 hours exposure from 2 dpf) [%],Lowest concentration at which an average penetrance of at least 50% was observed for the phenotypic effects ([1]; 24 hours exposure from 3 dpf) [%],Lowest concentration at which an average penetrance of at least 50% was observed for the phenotypic effects ([1]; 24 hours exposure from 4 dpf) [%],Lowest concentration at which an average penetrance of at least 50% was observed for the phenotypic effects ([1]; 24 hours exposure from 4 hpf) [%],Lowest concentration at which an average penetrance of at least 50% was observed for the phenotypic effects ([1]; 24 hours exposure from 5 dpf) [%],"Phenotypic effects above MTC after 24 hours (average penetrance at least 50%) [1, 10]","Phenotypic effects above MTC after 24 hours (average penetrance at least 50%) [1, 11]","Phenotypic effects above MTC after 24 hours (average penetrance at least 50%) [1, 12]","Phenotypic effects above MTC after 24 hours (average penetrance at least 50%) [1, 13]","Phenotypic effects above MTC after 24 hours (average penetrance at least 50%) [1, 14]",other results
"CC(C)=O [Acetone, acetone]",0.5,1.5,1.5,2,≥2.5,1.5,2,<0.5,<0.5,,,,,,,,,,,,"Maximum-tolerated concentration (MTC) ([1]; exposure for 24 hours beginning at 3 dpf, listed as acetone): ≥ 2.5%; Toxicity of negative controls with solvent (zebrafish): no signs of toxicity"
"CC#N [Acetonitrile, acetonitrile]",0.5,1,,<0.5,1,,,,,2.5,1.5,1.5,1.5,1.5,1,DD PE,PE SB,IC PE,IC PE,IC PE,"Effect on cleavage-stage embryos ([1]; 0.5% (lowest concentration examined), after 24 hours of exposure): completely lethal; Phenotypic effects above MTC after 24 hours (average penetrance at least 50%) ([1]; exposure from 4 hpf, at the concentration in parentheses): AP IC IP NO SO; Minimum embryotoxic concentration (rat embryos): 40 mM"
"C[S+](C)[O-] [Dimethyl sulfoxide (DMSO), Dimethyl sulfoxide]",2,2,2,>2.5,1.5,2,>2.5,2,1.5,,,2.5,,,2.5,,NB SB,,GG IC IM LP,NB LP,"MTC / tolerated concentration as summarised in the text for a subset of stages ([1]; BSA: intermediate stages, DMSO: embryos, glycerol: younger larvae and embryos): at least 2.5%; Levels at which abnormalities or lethality begin in at least a subset of treated animals ([1]; larvae): 2–2.5%; Adverse effects at maximum concentration tested (zebrafish embryos): no adverse effects"
"CO [Methanol, methanol]",2.5,1.5,>2.5,1.5,2,1,1.5,>2.5,2,,,2.5,,2,,,,,,,"Lowest concentration at which an average penetrance of at least 50% was observed for the phenotypic effects [1, 15]: 2%; Phenotypic effects above MTC after 24 hours (average penetrance at least 50%) ([1]; in vivo): NB LP"
CC1(C)OCC(CO)O1 (stereo not drawn) [Solketal],0.5,0.5,0.5,<0.5,0.5,<0.5,0.5,<0.5,<0.5,1,1,1,0.5,1,0.5,AP BH IC IM NB PE,AH IC IM HJ PE,BC LP,NB LP SB+,NB LP,"Maximum-tolerated concentration (MTC) ([1]; exposure for 24 hours beginning at 2–4 cell stage, listed as solketal): < 0.5%; Phenotypic effects above MTC after 24 hours (average penetrance at least 50%) ([1]; exposure from 2 dpf, at the concentration in parentheses): AP BH IC PE"
"Albumin (BSA): bovine serum albumin (BSA), carrier",,<0.5,0.5,<0.5,0.5,,<0.5,≥2.5,≥2.5,,,1.5,1.5,0.5,,,,IC PE,,,"Delay in development relative to control ([1]; 0.5% from 4-cell stage, embryos at 1 dpf, morphologically normal): up to 9 hours; Lowest concentration at which an average penetrance of at least 50% was observed for the phenotypic effects [1, 15]: 0.5%; Maximum-tolerated concentration (MTC) ([1]; exposure for 24 hours beginning at 5 dpf, listed as BSA): ≥ 2.5%; Maximum-tolerated concentration (MTC) ([1]; exposure for 24 hours beginning at 7 dpf, listed as BSA): ≥ 2.5%"
